From patent EP0533925A1, “OPTICAL ISOMER OF R-FORM OF DIPHENYL ETHER DERIVATIVE AND HERBICIDE CONTAINING THE SAME AS ACTIVE INGREDIENT” (TEIJIN LIMITED, priority 1990, dated 1991)

What was measured:
Test in all cases: Herbicidal activity, foliar application of single compounds (Test Examples 1 to 5)
Assay type in all cases: in vivo
Parameters in all cases: key: 0 means the state where the plants are as sound as before the application of the active compound; 1, 2, 3 and 4 mean varying degrees of the enfeebled state of the plants between 0 and 5; 1, 2, 3 and 4 mean varying degrees of the enfeebled state of the plants between 0 and 5; 1, 2, 3 and 4 mean varying degrees of the enfeebled state of the plants between 0 and 5; 1, 2, 3 and 4 mean varying degrees of the enfeebled state of the plants between 0 and 5; 5 is the state where the plants are withered or killed by application of the active compound
Conditions in all cases: 3 weeks after application
Abutilon theophrosti = tested on: Abutilon theophrosti
Protocol: (§1) In these examples, all parts means parts by weight, unless otherwise noted. The herbicidal activity was evaluated on a scale of 6 degrees. In other words, 0 means the state where the plants are as sound as before the application of the active compound, while 5 is the state where the plants are withered or killed by application of the active compound, and 1, 2, 3 and 4 mean varying degrees of the enfeebled state of the plants between 0 and 5.
(§2) The diphenyl ethers shown in Table 2 were added to 5000 parts of a mixture of acetone and water (1 : 1 by volume), and 2.6 parts of a nonionic surfactant (Sorpol 2680, tradename) was added to form a solution, so that the ether becomes the prescribed amount in each solution.
(§3) Seeds of plants were sown in the soil, cultivated for 2 to 3 weeks, after germination, then the plants were used for the tests.
(§4) The prepared solution was applied to these plants at the prescribed rate of application in total, then the plants were continuously cultivated for 3 weeks without applying the solution.
(§5) The alphabetical symbols in Tables 2 and 3 represent the following plants, respectively: a: Digitaria adscendens b: Setaria viridis c: Sorghum halepense d: Chenopodium album var. centrorubrum e: Amaranthus mangostanus f: Astragalus sinicus g: Abutilon theophrosti h: Solanum nigrum i: Xanthium strumarium j: Soybean; Glycine max k: Corn; Zea mays Table 2

Amaranthus mangostanus = tested on: Amaranthus mangostanus
Protocol: as §1, §2, §3, §4, §5

Astragalus sinicus = tested on: Astragalus sinicus
Protocol: as §1, §2, §3, §4, §5

[1] = tested on: Chenopodium album var. centrorubrum
Protocol: as §1, §2, §3, §4, §5

Corn; Zea mays = tested on: Corn; Zea mays
Protocol: as §1, §2, §3, §4, §5

Digitaria adscendens = tested on: Digitaria adscendens
Protocol: as §1, §2, §3, §4, §5

Setaria viridis = tested on: Setaria viridis
Protocol: as §1, §2, §3, §4, §5

Solanum nigrum = tested on: Solanum nigrum
Protocol: as §1, §2, §3, §4, §5

Sorghum halepense = tested on: Sorghum halepense
Protocol: as §1, §2, §3, §4, §5

Soybean; Glycine max = tested on: Soybean; Glycine max
Protocol: as §1, §2, §3, §4, §5

Xanthium strumarium = tested on: Xanthium strumarium
Protocol: as §1, §2, §3, §4, §5

[2] = Rate of Application 0.016 kg/ha
[3] = Rate of Application 0.031 kg/ha
[4] = Rate of Application 0.008 kg/ha

Row | Structure (SMILES) | herbicidal activity, Plants g (Abutilon theophrosti; [3]) | herbicidal activity, Plants e (Amaranthus mangostanus; [3]) | herbicidal activity, Plants f (Astragalus sinicus; [3]) | herbicidal activity, Plants d [1, 3] | herbicidal activity, Plants k (Corn; Zea mays; [3]) | herbicidal activity, Plants a (Digitaria adscendens; [3]) | herbicidal activity, Plants b (Setaria viridis; [3]) | herbicidal activity, Plants h (Solanum nigrum; [3]) | herbicidal activity, Plants c (Sorghum halepense; [3]) | herbicidal activity, Plants j (Soybean; Glycine max; [3]) | herbicidal activity, Plants i (Xanthium strumarium; [3]) | herbicidal activity, Plants g (Abutilon theophrosti; [4]) | herbicidal activity, Plants e (Amaranthus mangostanus; [4]) | herbicidal activity, Plants f (Astragalus sinicus; [4]) | herbicidal activity, Plants d [1, 4] | herbicidal activity, Plants k (Corn; Zea mays; [4]) | herbicidal activity, Plants a (Digitaria adscendens; [4]) | herbicidal activity, Plants b (Setaria viridis; [4]) | herbicidal activity, Plants h (Solanum nigrum; [4]) | herbicidal activity, Plants c (Sorghum halepense; [4]) | also measured
1 | COC(=O)C(C)Oc1cc(Oc2ccc(C(F)(F)F)cc2Cl)ccc1C#N (racemic) [Racemic (1), racemic methyl α-[2-cyano-5-(2-chloro-4-trifluoromethylphenoxy)phenoxy]propionate, reference compound] | 5 | 5 | 5 | 5 | 5 | 4 | 3 | 5 | 5 | 4 | 5 | – | – | – | – | – | – | – | – | – | herbicidal activity, Plants g (Abutilon theophrosti; [2]): 5; herbicidal activity, Plants e (Amaranthus mangostanus; [2]): 5; herbicidal activity, Plants f (Astragalus sinicus; [2]): 5; herbicidal activity, Plants d [1, 2]: 5; herbicidal activity, Plants k (Corn; Zea mays; [2]): 4; herbicidal activity, Plants a (Digitaria adscendens; [2]): 3; herbicidal activity, Plants b (Setaria viridis; [2]): 2; herbicidal activity, Plants h (Solanum nigrum; [2]): 5; herbicidal activity, Plants c (Sorghum halepense; [2]): 2; herbicidal activity, Plants j (Soybean; Glycine max; [2]): 4; herbicidal activity, Plants i (Xanthium strumarium; [2]): 5
2 | CCOC(=O)C(C)Oc1cc(Oc2ccc(C(F)(F)F)cc2Cl)ccc1C#N (stereo not drawn) [(2), ethyl α-[2-cyano-5-(2-chloro-4-trifluoromethylphenoxy)phenoxy]propionate] | 5 | 5 | 5 | 5 | 5 | 4 | 4 | 5 | 5 | 5 | 5 | 5 | 3 | 4 | 5 | 4 | 3 | 3 | 5 | 3 | herbicidal activity, Plants j (Soybean; Glycine max; [4]): 4; herbicidal activity, Plants i (Xanthium strumarium; [4]): 5
3 | CCCCOC(=O)C(C)Oc1cc(Oc2ccc(C(F)(F)F)cc2Cl)ccc1C#N (stereo not drawn) [(3), n-Butyl α-[2-cyano-5-(2-chloro-4-trifluoromethylphenoxy)phenoxy]propionate] | 5 | 5 | 5 | 5 | 5 | 5 | 4 | 5 | 5 | 5 | 5 | 5 | 5 | 4 | 5 | 2 | 3 | 3 | 5 | 2 | herbicidal activity, Plants j (Soybean; Glycine max; [4]): 3; herbicidal activity, Plants i (Xanthium strumarium; [4]): 4
4 | CCOC(=O)C(C)Oc1cc(Oc2ncc(C(F)(F)F)cc2Cl)ccc1C#N (stereo not drawn) [(37), Ethyl α-[2-cyano-5-(3-chloro-5-trifluoromethyl-2-pyridyloxy)phenoxy]propionate] | 5 | 5 | 4 | 5 | 3 | 4 | 4 | 4 | 5 | 4 | 5 | 5 | 5 | 3 | 3 | 2 | 3 | 3 | 4 | 3 | herbicidal activity, Plants j (Soybean; Glycine max; [4]): 3; herbicidal activity, Plants i (Xanthium strumarium; [4]): 4
5 | COC(=O)[C@H](C)Oc1cc(Oc2ccc(C(F)(F)F)cc2Cl)ccc1C#N [S-enantiomer (1), S-enantiomer of methyl α-[2-cyano-5-(2-chloro-4-trifluoromethylphenoxy)phenoxy]propionate, reference compound] | 1 | 0 | 1 | 1 | 0 | 1 | 0 | 2 | 1 | 1 | 0 | – | – | – | – | – | – | – | – | – | –
